These results are taken from US11035008B2, “Biomarkers for cancer” (BERGENBIO ASA, priority 2015, dated 2021).

One test concerns Mv4-11 cells. The test can be described thus: IC50 of BGB324 by resazurin assay, Mv4-11. As to conditions: Homo sapiens, Mv4-11 (responder). The class given is cell-based. An excerpt: (§1) The diversity of AML cells and their responses was investigated using a panel of AML cell lines and assessing their responses after BGB324-treatment.
(In general: The colour change of resazurin is a common sign of viable cells or microbes.)

In a further test the test system is pAxl(Y779). The test can be described thus: pAxl(Y779) by flow cytometry in MOLM13 cells (Example 2). The class given is cell-based, human. How it is done: (§2) Staining of Cells for Flow Cytometry, General Protocol: • Live cells were centrifuged at 300 G for 5 minutes, washed once with PBS and centrifuged again. Cells were then fixed in 4% PFA in PBS for 10 minutes at 37° C., and resuspended in PBS. Unless processed immediately, samples were at this point stored in PBS at 4° C. (up to three weeks) or at −80° C. (for long-term storage). If intracellular epitopes were stained, cells were permebealized in 90% MeOH for 30 minutes on ice. Unless processed immediately, samples were also be stored in 90% MeOH at −20° C. for up to two months. • Further staining procedure (permebealized or non-permebealized cells): • Cells were washed 1× in PBS and blocked in blocking buffer; either PBS+0.5% BSA or PBS+1:1000 Octagam (5 mg/ml) for 15 minutes at room temperature. Thereafter, cells were incubated with primary AB at the indicated dilutions in incubation buffer (IB, PBS+0.5% BSA) for 1 hour at room temperature. Cells were then washed 3× with IB and incubated with secondary AB (conjugated to a fluorescent flurophore) at 1:1000 dilution in IB for 30 minutes at room temperature. Finally, cells were washed 3× in IB and resuspended in PBS. Cells were analyzed immediately, or stored for up to 24 hours at 4° C. before analysis. • Analysis of cells was done on a BD LSR Fortessa or a BD C6 Accuri flow cytometer, and further processing was done using FlowJo v.7.6. • All incubation steps (but not storage) were done on a spinning wheel or gentle shaker.
MOLM13 cells were cultured in starvation medium (RPMI, 0.1% FBS) over night and treated with BGB324 at 3 μM for a total of 40 minutes. […] Cells were co-stained with pAxl(Y779) and tAxl (1H12) antibodies. […] When gating for Axl-expressing cells, we saw that the reduction of pAxl signal was only seen in Axl-positive cells, showing that the pAxl antibody appears to be Axl-specific (see FIG. 3).
pAxl was further assessed pAxl by, in the same experimental conditions, examining for phosphorylation of Akt (see above, and FIG. 2), comparing starvation with non-starved cells, and using MOLM13 wt, shAxl and shLuc (cells were co-stained with antibodies for both pAkt and pAxl). MOLM13shAxl were used as a negative control, to separate between background binding of the antibodies and the “real” pAxl-signal. In cells that were not starved, only a slight inhibition of pAxl after treatment was found (around 20% at 3 μM BGB324 dose).
For orientation: A flow cytometer gives signals particle by particle.

The subject of another test is pAkt (S473). The test can be described thus: pAkt(S473) in AML cell panel, short term treatment, flow cytometry. The class given is cell-based, human. Conditions: 1 hour. How it is done: as §2, §1
When investigating phospho-markers, the cells were starved overnight in the appropriate growth medium containing 0.1% FBS, pre-treated with BGB324 at 0.5 and 1 μM for one hour, and stimulated with 10% FBS for 20 minutes (to induce phosphorylation, with BGB324 present). Cells were then fixed and stained for flow cytometric analyses.

The next test deals with totErk. The test can be described thus: Total Erk in AML cell panel, long-term treatment, flow cytometry. The class given is cell-based, human. How it is done: as §2, §1
Long-term treatment was done in complete medium, without starvation. The responders were treated with 0.05, 0.1 or 0.3 μM BGB324, whereas the non-responders were treated with only a single dose of 2.5 μM BGB324. The cells were fixed after 24, 48 or 72 hours, and the samples were stored in 90% MeOH at −20° C. until all samples were harvested, and stained for flow at the same time.

Test [1] relates to PHGDH. Kind of test: PHGDH by western blot in MOLM13 cells treated in vitro. The class given is cell-based, human. The procedure: Western Blot, General Protocol: • For western blot analysis, cells were lysed on ice using NP-40 lysis buffer with protease- and phosphatase inhibitors. Total protein concentration in lysates was measured using a BCA protein assay kit following the manufacturers instructions. 10% NuPAGE® Bis-Tris precast gels were loaded with 30-50 μg of protein in each well diluted in sample buffer and antioxidant. A 1:1 mix of MagicMark™ XP Western Protein Standard (Invitrogen) and SeeBlue® Plus 2 Pre-Stained Standard was used as protein standard. Gels were run at 50V for 20 min, then at 100V for 1 h 30 min. Blotting was done on ice for 1 h 30 min at 100V onto PVDF (pre-activated with MeOH) or nitrocellulose membranes. Membranes were washed in TBS-0.1% Tween-20 (TBS-T), and blocked in TBS-T 5% BSA for at least 1 h at RT. Primary ABs were added at 1:1000 in TBS-T 5% BSA (rabbit-anti-actin AB was added at 1:2000) in TBS-T 5% BSA, and membranes were incubated over night at 4° C. Membranes were then washed 3× in TBS-T, and incubated in HRP-conjugated secondary ABs at 1:5000 dilution in TBS-T 5% milk for 45 min at RT. Membranes were developed for 1 min using ECL-reagents and imaged with chemiluminescence using a Molecular Imager ChemiDoc™ XRS (BioRad). • All incubation- and washing steps were done on a roller.
A general note: Immunoblotting shows a protein as a band on a membrane.

Test [2] concerns PHGDH. The test can be described thus: PHGDH in CD33-positive cells, MOLM13 systemic xenograft model, flow cytometry. Type of test: in vivo, mice. As to conditions: 50 mg/kg for 4 days. How it is done:
(§3) Material from an in vivo MOLM13 systemic model was also evaluated by flow cytometry. Expression of the previously evaluated biomarkers was examined in cells isolated from bone marrows and spleens of animals with systemic AML disease (MOLM13, inoculated for 7 days prior to treatment) treated with BGB324 at 50 mg/kg for 4 days. The spleens analysed were from the same study that was analysed by microarray, as mentioned above. The bone marrows were from an identical study that was done at a later time point to get more material for flow analyses.
(§4) Cells isolated from spleens and bone marrows were assessed for phosphorylation of Erk, PLCγ1 and Akt, and expression of PHGDH and SLFN11. The samples were also co-stained with CD33, and biomarker expression was only evaluated in CD33-positive cells.

The next test deals with SLFN11. The test can be described thus: SLFN11 in CD33-positive cells, MOLM13 systemic xenograft model, flow cytometry. The class given is in vivo, mice. Conditions: bone marrows, 50 mg/kg for 4 days. How it is done:
as §3, §4

For the next test, the system named is pAkt. The test can be described thus: pAkt in CD33-positive cells, MOLM13 systemic xenograft model, flow cytometry. Type of test: in vivo, mice. As to conditions: both tissues (spleens and bone marrows), 50 mg/kg for 4 days; change not significant. How it is done:
as §3, §4

“Also recorded” adds a separate entry of the source.

In the test with Mv4-11 cells, `Nc1nc(Nc2ccc3c(c2)CC[C@@H](N2CCCC2)CC3)nn1-c1cc2c(nn1)-c1ccccc1CCC2` [BGB324, 1-(6,7-dihydro-5H-benzo[6,7]cyclohepta[1,2-c]pyridazin-3-yl)-N3-((7-(S)-pyrrolidin-1-yl)-6,7,8,9-tetrahydro-5H-benzo[7]annulene-2-yl)-1H-1,2,4-triazole-3,5-diamine] came in with an IC50 of 140 nM. For the same compound, the inhibition at 3 µM in the test with pAxl(Y779) (Homo sapiens, MOLM-13, MOLM13 not starved (wt, shLuc, shAxl same)) is ~20%. In the test with pAxl(Y779) (MOLM13 shAxl, pre-starved, 3 μM), the “inhibition of pAxl” value is “approximately 20%”. Also, the “pAxl(Y779)” value with pAxl(Y779) (MOLM13 starved, 3 μM, 40 minutes) is listed as “slight decrease in pAxl; also recorded: modest reduction of pAxl”. Besides, in the test with pAxl(Y779) (MOLM13 wt and shLuc, pre-starved, 3 μM), the “total reduction of pAxl” value is 40%. For the same compound, the Akt phosphorylation entry in the test with pAkt (S473) (Kasumi, 0.5 and 1 μM) is recorded as “close to no effect”; in the test with pAkt (S473) (MOLM13, 0.5 and 1 μM, 10% FBS stimulation), “inhibits Akt phosphorylation”; in the test with pAkt (S473) (Mv4-11, 0.5 and 1 μM, not significant at 0.5 μM) it was “inhibits Akt phosphorylation”; in the test with pAkt (S473) (OCI-M1, 0.5 and 1 μM), “close to no effect”. Also, the pAkt entry with pAkt (S473) (OCI-M1, 1 μM) was “slight and significant inhibition of pAkt”; with pAkt, “went down”. Further, the Erk expression entry in the test with totErk (Kasumi, 2.5 μM, significant at 48 and 72 hours) is recorded as “reduction of Erk expression”; in the test with totErk (MOLM13, 0.3 μM, 48 and 72 hours), “normalized to control-levels”; in the test with totErk (MOLM13, 0.3 μM, 24 hours) it was “slight, but significant, reduction of Erk expression”; with totErk (Mv4-11, 0.3 μM, 24, 48 and 72 hours) it was “gradual reduction of Erk expression”; with totErk (Mv4-11, 0.3 μM, 48 and 72 hours) it was “significantly lower than control cells”; in the test on totErk (OCI-AML5, 2.5 μM, significant at 24 and 48 hours), “reduction of Erk expression”. The “PHGDH by western blot” value in the test with PHGDH [1] (2 uM, time-course of 3-7 hours) was “did not see reduction of PHGDH”; with PHGDH [1] (0.3 and 0.6 uM, three days), “did not see reduction of PHGDH”. Besides, the PHGDH expression result with PHGDH [2] (bone marrows) and in the test on PHGDH [2] (spleens) was “significant reduction” each time. Also, the SLFN11 expression entry in the test with SLFN11 is “significant reduction”.

By IC50 is commonly meant the point on the concentration scale where inhibition reaches its midpoint. The term inhibition denotes the change of the read-out against control, counted positive when it falls.
